From ChEMBL document CHEMBL4418497, “Compositions and methods relating to inhibiting serine hyrdoxymethyltransferase 2 activity” (2016)

Columns and labels:
[1] = molecular target: T1, Serine hydroxymethyltransferase, mitochondrial (Homo sapiens, UniProt P34897); assay: Inhibition of His-tagged human recombinant SHMT2 expressed in Escherichia coli BLR(DE3) assessed as reduction in NADPH level using L-serine, THF and NADP+ incubated for 5 mins by SHMT2-MTHFD coupled reaction based fluorescence assay; conditions: read-out: IC50
T1 sequence (P34897 whole entry): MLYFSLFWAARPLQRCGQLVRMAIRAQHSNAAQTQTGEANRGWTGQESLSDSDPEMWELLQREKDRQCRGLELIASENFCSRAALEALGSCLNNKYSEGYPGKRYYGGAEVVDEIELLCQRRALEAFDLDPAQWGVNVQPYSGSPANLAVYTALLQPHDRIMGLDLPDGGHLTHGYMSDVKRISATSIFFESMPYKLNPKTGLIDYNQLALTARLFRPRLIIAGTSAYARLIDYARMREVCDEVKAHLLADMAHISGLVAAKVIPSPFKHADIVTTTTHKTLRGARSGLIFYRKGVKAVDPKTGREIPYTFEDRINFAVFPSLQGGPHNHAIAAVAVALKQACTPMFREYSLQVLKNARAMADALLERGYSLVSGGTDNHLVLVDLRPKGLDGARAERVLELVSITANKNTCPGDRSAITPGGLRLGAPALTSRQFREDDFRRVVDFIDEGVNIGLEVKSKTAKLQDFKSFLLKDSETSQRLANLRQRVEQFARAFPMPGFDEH

[2] = molecular target: T2, Serine hydroxymethyltransferase, mitochondrial (Homo sapiens) (UniProt P34897); assay: Inhibition of His-tagged human recombinant SHMT2 expressed in Escherichia coli BLR(DE3) assessed as reduction in NADPH level using L-serine, THF and NADP+ at 6.5 or 26.5 uM incubated for 5 mins by SHMT2-MTHFD coupled reaction based fluorescence assay relative to control
T2 sequence (whole entry): T1 sequence (P34897 whole entry)

| Compound | IC50 [1] [µM] | inhibition [2] [%] |
| --- | --- | --- |
| CCC(CC)C(=O)Nc1cc(F)c2nc(N3CCOCC3)ccc2c1 | 5.13 |  |
| CC(=O)Oc1cc2c(C(=O)NCC3CCCO3)c(C)oc2c2ccccc12 (stereo unspecified) | 3.72 |  |
| O=C(Cc1cccs1)Nc1cc(F)c2nc(N3CCOCC3)ccc2c1 | 4.79 |  |
| CCc1ccc(NS(=O)(=O)c2ccc3c4c2CC(=O)N4CC(C)S3)cc1 (stereo unspecified) | 2.14 |  |
| COc1ccc(OC)c(NC(=O)N2CCN(S(=O)(=O)c3ccc4c(ccn4C)c3)CC2)c1 | 3.24 |  |
| O=C(Nc1ccc2c(c1)OCCO2)N1CCSc2ncccc21 | 2.75 |  |
| COc1ccc(OC)c(Nc2c(-c3ccc4c(c3)CCCC4)c(=O)c2=O)c1 | 2.4 |  |
| CN1CC[C@@]2(C)c3cc(OC(=O)Nc4ccccc4)ccc3N(C)[C@@H]12 |  | 56.6 |
| Cc1cc(CNC(=O)Nc2ccc3c(c2)OCCO3)c(C)n1-c1ccc(Cl)cc1 | 8.51 |  |
| CN1CCN(CCCNC(=O)c2ccc(N3CCSc4ncccc43)s2)CC1 | 3.8 |  |
| COc1cc(NC(=O)N2CCSc3ncccc32)cc(OC)c1 | 2.57 |  |
| CC(C)NC(=O)N1CCC2(CC1)Nc1cc(F)ccc1-n1cccc12 | 9.77 |  |
| C=CCNc1nc(Nc2ccc(OC)cc2)c2cnn(C)c2n1 | 1.62 |  |
| O=C(CSc1nc2ncccc2o1)Nc1ccc(Br)cc1F | 1.82 |  |
| COc1ccc(OC)c(NS(=O)(=O)c2ccc3c(c2)S(=O)(=O)NC=N3)c1 | 4.07 |  |
| O=C1CN(S(=O)(=O)c2ccc3[nH]c4c(c3c2)CCCC4)c2ccccc2N1 | 6.76 |  |
| Cc1c(C(=O)N2CCOCC2)oc2c1-c1nn(CC(=O)NC3CCCC(C)C3C)cc1CC2 (stereo unspecified) | 2.69 |  |
| O=C(CSc1nc2ncccc2o1)Nc1ccc(S(=O)(=O)Nc2ccc(F)cc2)cc1 | 2.75 |  |
| Cc1cccc(NC(=O)Nc2cn(CC(C)C)c(=O)c3ccccc23)n1 | 2.57 |  |
| CCc1nnc2c3ccccc3nc(Nc3ccc(OC)c(OC)c3)n12 | 12.3 |  |
| O=C1c2ccccc2C(Nc2ccc3[nH]c(-c4cccnc4)nc3c2)N1Cc1ccco1 (stereo unspecified) | 9.77 |  |
| O=C(Nc1cc(F)c2nc(N3CCCC3)ccc2c1)C1CCCCC1 | 2.57 |  |
| CCOC(=O)c1nc(Nc2cc(OC)ccc2OC)c2ccccc2n1 | 14.1 |  |
| COc1cc(OC)c(NC(=O)N2CCn3cccc3C2C)cc1Cl (stereo unspecified) | 12.9 |  |
| CCOC(=O)C1CCN(c2cc(C(=O)O)c3cc(N)ccc3n2)CC1 | 6.46 |  |
| COc1ccc(Nc2nnc(-n3nc(C)cc3C)c3ccccc23)c(OC)c1 | 3.47 |  |

| Compound | IC50 [1] [µM] | inhibition [2] [%] |
| --- | --- | --- |
| COC(=O)c1sc(=S)n(-c2ccc3c(c2)OCO3)c1N | 2.95 |  |
| Cc1c(C(=O)NCc2ccco2)oc2c1-c1[nH]ncc1CC2 | 6.92 |  |
| COc1ccc(Nc2nnc(Cc3ccncc3)c3ccccc23)c(OC)c1 | 3.89 |  |
| CCC1=NN(c2ccccc2)C(=O)C1 | 8.51 |  |
| Cc1csc(NC(=O)Nc2cn(CC(C)C)c(=O)c3ccccc23)n1 | 3.47 |  |
| O=C1CCCC2=C1C(c1cccs1)N(S(=O)(=O)c1ccc(F)cc1)c1ccccc1N2 (stereo unspecified) | 4.57 |  |
| COc1cc(OC)c(N(C)C(=O)Nc2cn(C)c(=O)c3ccccc23)cc1Cl | 3.72 |  |
| CN(C)c1ccc(NC(=O)C2CC=CCC2C(=O)O)cc1 (stereo unspecified) | 4.79 |  |
| O=C(Nc1cc(F)c2nc(N3CCOCC3)ccc2c1)C1CCC1 | 1.55 |  |
| C=CCOc1ccc(C2CC(=O)Nc3c(-c4ccccc4OC)csc32)cc1 (stereo unspecified) | 1.02 |  |
| Cc1c(C(=O)NCc2cccs2)oc2c1-c1[nH]ncc1CC2 | 7.94 |  |
| C=CCn1c(=O)sc2cc(NC(=O)Cc3ccc(F)cc3)ccc21 | 10.2 |  |
| COc1cc(OC)c(NC(=O)N2CCN3CCCCC3C2)cc1Cl (stereo unspecified) | 2.69 |  |
| COc1cc(NC(=O)C2CCC2)cc2sc(NS(=O)(=O)c3ccccc3)nc12 | 8.13 |  |
| O=C(Nc1cc(F)c2nc(N3CCOCC3)ccc2c1)c1ccco1 | 3.55 |  |
| Cn1cc(NC(=O)NCCN2CCOCC2)c2ccccc2c1=O | 6.76 |  |
| CCOc1ccc(NS(=O)(=O)c2ccc3c4c2CC(=O)N4CC(C)S3)cc1 (stereo unspecified) | 5.01 |  |
| CCNc1nc2[nH]c(=O)cc(O)c2s1 | 1.91 |  |
| O=C1CSC(c2ccccn2)N1c1ccc2ccccc2c1 (stereo unspecified) | 11 |  |
| CC(C)Cn1cc(NC(=O)Nc2ccc(Cl)cn2)c2ccccc2c1=O | 3.8 |  |
| CC(C)Cn1cc(NC(=O)NCCN2CCN(C)CC2)c2ccccc2c1=O | 2.45 |  |
| CCN(CC)S(=O)(=O)c1ccc(NC(=O)Nc2cn(CC(C)C)c(=O)c3ccccc23)cc1 | 3.72 |  |
| O=C(Nc1cccc2c1CCCC2)N1CCSc2ncccc21 | 2.34 |  |
| CC(C)Cn1cc(NC(=O)Nc2ccc(N3CCC(C)CC3)cc2)c2ccccc2c1=O | 8.91 |  |
| O=C(Nc1ccc2c(c1)OCCO2)N1CCc2c([nH]c3ccccc23)C1c1ccccc1F (stereo unspecified) | 4.79 |  |
